Molecules are shown by their SMILES. Active and inactive are the calls of the source.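 How the source made its calls: active means fitted EC50 no more than tenfold above the highest tested concentration; inconclusive means flat fit with 30 to 70% signal loss, or poor fit; inactive means the rest.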 Bounds are passed on as bounds.

The test system of the assay is Candida albicans CaCi-2 growth (no fluconazole), Alamar Blue. The assay is described as follows: C. albicans growth inhibition without fluconazole, dose response, counter-screen for fluconazole resistance reversal project, CaCi-2 strain, Alamar Blue fluorescence (AID 2387). To be noted: C. albicans CaCi-2 (fluconazole-resistant clinical isolate) growth without fluconazole, 48 h.
For `O=[N+]([O-])c1cc(O)c2ncccc2c1`, the EC50 is 12.3 µM.

`Cc1ccccc1C(=O)O/N=C/c1c(N2CCOCC2)n(C)c2ccccc12`: the EC50 is > 16 µM (inactive).

On to `Oc1c(CN2CCN(c3ccccc3)CC2)cc(Br)c2cccnc12`, for which the EC50 is 2.11 µM.

Regarding `O=C(c1cc2c(s1)CCCCC2)N1CCN(c2ncccn2)CC1`, the EC50 is > 16 µM (inactive).

Regarding `Cc1ccc(S(=O)(=O)N(C)c2ccc(OCC(=O)Nc3nnc(C4CC4)s3)cc2)cc1`, the EC50 is > 15 µM (inactive).

With `O=C(NNC1=C(C(=O)C(F)(F)F)CCC1)c1ccc(Cl)cc1`, the EC50 was > 15 µM (inactive).

For the compound `N/C(Cc1ccccc1)=N\OC(=O)c1cccc2ccccc12`, the EC50 was > 15 µM (inactive).

Turning to `CCC(=O)NC(c1ccc(OC)cc1)c1cc(Cl)c2cccnc2c1O` (stereo unspecified), the EC50 was > 16 µM (inactive).

On to `O=C(Oc1c(Cl)cc(Cl)c2cccnc12)c1ccco1`, for which the EC50 is 1.17 µM.

Take `O=C(Nc1nnc(-c2ccc3c(c2)CCCC3)o1)c1ccc(Cl)cc1Cl`: the EC50 was 14.5 µM.

Regarding `CCN(CC)c1ccc2cc(S(=O)(=O)c3ccc(C)cc3)c(=O)oc2c1`, the EC50 is > 16 µM (inactive).

For `CCCC(=O)NC(c1ccccc1)c1ccc2cccnc2c1O` (stereo unspecified), the EC50 was > 16 µM (inactive).

In the case of `CCCC(=O)NC(c1ccc(Cl)cc1)c1ccc2cccnc2c1O` (stereo unspecified), the EC50 is 16.1 µM.

As for `C[C@]12CCC3[C@@H](CC[C@H]4C[C@@H](O)CC[C@]34C)C1CCC2=O` (stereo partly specified), the EC50 was > 15 µM (inactive).

On to `Cc1ccc2nc(N3C(=O)C(O)=C(C(=O)c4ccco4)C3c3ccc(C)o3)sc2c1` (stereo unspecified), for which the EC50 was > 15 µM (inactive).

For the compound `O=[N+]([O-])c1c(C(Cl)Cl)nn(-c2ccc(Cl)cc2)c1N1CCCCC1`, the EC50 is > 16 µM (inactive).

`COC(=O)Cn1nc(-c2ccccc2)c2ccccc21`: the EC50 is > 15 µM (inactive).

As for `O=c1[nH]c(-c2ccccn2)nc(C(F)(F)F)c1Br`, the EC50 is > 15 µM (inactive).

Turning to `Cc1oc2c(F)c(F)c(F)c(F)c2c1S(=O)(=O)Nc1cccc(C(F)(F)F)c1`, the EC50 is > 16 µM (inactive).

`CC[n+]1c(C=C2C=C(C)OC(C)=C2)sc2ccccc21`: the EC50 is > 16 µM (inactive).

Turning to `O=C(NNC(=S)NC(=O)c1ccc(Br)cc1)c1ccc([N+](=O)[O-])cc1`, the EC50 was > 16 µM (inactive).

On to `Cc1ccc(-c2nc3c(Cl)cc(Cl)cc3c(=O)n2O)cc1`, for which the EC50 was 11.5 µM.

Take `c1ccc2c(c1)OCC(CNc1ncnc3sccc13)O2` (stereo unspecified): the EC50 is > 15 µM (inactive).

Regarding `CCCOc1ccc(C(=O)NNC(=S)NC(C)=O)cc1`, the EC50 is > 16 µM (inactive).

As to `O=C1/C(=C/c2cccnc2)CCc2c1[nH]c1ccccc21`, the EC50 was > 15 µM (inactive).

With `O=C(N/N=C/c1c(O)ccc2ccccc12)c1cccc(C(F)(F)F)c1`, the EC50 is 1.42 µM.

Consider `Cc1cc(C(=O)Nc2sc3c(c2C#N)CCCC3)no1`, for which the EC50 was > 16 µM (inactive).

Turning to `Cc1ccc(C)c(NC(=S)NNC(=O)c2csc(C(C)C)c2)c1`, the EC50 is > 16 µM (inactive).

For `CC(C)Cc1nc2oc3c(=O)[nH]cnc3c2c2c1CCCC2`, the EC50 is > 15 µM (inactive).

As for `CN1CCN(C(c2ccc(C(F)(F)F)cc2)c2ccc3cccnc3c2O)CC1` (stereo unspecified), the EC50 was 8.31 µM.

As to `CC1CCC(C(C)C)C(OC(=O)Cn2c(-c3ccc(Br)cc3)[n+](C)c3ccccc32)C1` (stereo unspecified), the EC50 is > 16 µM (inactive).

For `Nc1c(S(=O)(=O)c2ccccc2)c2nc3ccccc3nc2n1CCN1CCOCC1`, the EC50 was > 16 µM (inactive).

Turning to `N/C(Cc1ccc(Cl)c(Cl)c1)=N\OC(=O)c1cccs1`, the EC50 was > 16 µM (inactive).

`O=C(NNC1=C(C(=O)C(F)(F)F)CCC1)c1ccc(Br)cc1`: the EC50 was > 15 µM (inactive).

For `O=C(Oc1cc2oc(=O)c3c(c2cc1Cl)CCCC3)c1cccs1`, the EC50 is > 15 µM (inactive).

Take `O=C(NCc1cc([N+](=O)[O-])ccc1O)c1cccnc1Sc1ccccc1Cl`: the EC50 is > 15 µM (inactive).

Source of the values: PubChem BioAssay AID2387 (Broad Institute, 2010).
